Measurements taken from patent publication US10463644B2, “Uses of sesquiterpene lactone compounds and their derivatives in drugs preparation” (ACCENDATECH, priority 2013, dated 2019).
Where two headings read alike, the source gives them in different places.

Legend:
cancer stem cells = assay: Survival rate of cancer stem cells after test compound is added (flow cytometry, Annexin V-FITC/PI, clinical specimen); assay type: cell-based, patient; conditions: Homo sapiens, 18 h
Method in brief: (§1)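 Mononuclear cells from fresh or cryopreserved clinical samples, isolated by Ficoll gradient and held in serum-free IMDM (1×10^6/mL), received compound for 18 h. After labelling with marker antibodies (CD34+CD38+ for AML), Annexin V-FITC and PI staining was analysed by flow cytometry.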

cancer cells = assay: Survival rate of cancer cells after test compound is added (flow cytometry, Annexin V-FITC/PI, clinical specimen); assay type: cell-based, patient; conditions: Homo sapiens, 18 h, read-out: Survival rate (%) All cells (Stem cells and ordinary cells)
Method in brief: as §1

[1] = tested on: PGE2 secreted by synoviocyte; assay: Content of PGE2 in culture supernatant of synoviocyte of RA model rats given test compound; assay type: in vivo; conditions: rat RA model, dose 30 mg/kg.2d; normal control 8.34 ± 1.29, NaCl 32.44 ± 10.32
Method in brief: (§2)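 Rat RA model; dosing 30 mg/kg.2d; normal and NaCl control groups. Synoviocyte culture supernatant collected; TNF-α and PGE2 measured by one established method, IL-1β by a separate method.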

[2] = tested on: IL-1β secreted by synoviocyte; assay: Content of IL-1β in culture supernatant of synoviocyte of RA model rats given test compound; assay type: in vivo; conditions: rat RA model, dose 30 mg/kg.2d; normal control 0.16 ± 0.034, NaCl 0.49 ± 0.136
Method in brief: as §2

normal cells = assay: Survival rate of normal cells after test compound is added (flow cytometry, Annexin V-FITC/PI); assay type: cell-based; conditions: 18 h
Method in brief: as §1

[3] = Head and neck squamous cell carcinomas
[4] = read-out: Survival rate (%) All cells (Stem cells and ordinary cells)
[5] = read-out: Survival rate (%) Stem cells

## C=C1C(=O)O[C@@H]2[C@H]3C(C)=CC[C@@]34O[C@@]4(C)CC[C@@H]12 [Compound 50]
Cancer stem cells; AML
  viability at 10 µM: 45%
  viability at 20 µM: 36%
Cancer stem cells; Brain glioma
  viability at 10 µM: 63%
  viability at 20 µM: 47%
Cancer stem cells; Brain tumor
  viability at 10 µM: 62%
  viability at 20 µM: 54%
Cancer stem cells; Breast cancer
  viability at 10 µM: 64%
  viability at 20 µM: 52%
Cancer stem cells; CLL
  viability at 10 µM: 47%
  viability at 20 µM: 36%
Cancer stem cells; CML
  viability at 10 µM: 57%
  viability at 20 µM: 46%
Cancer stem cells; Children hepatoblastoma
  viability at 10 µM: 42%
  viability at 20 µM: 34%
Cancer stem cells; Colon adenocarcinoma
  viability at 10 µM: 43%
  viability at 20 µM: 35%
Cancer stem cells; Colorectal cancer
  viability at 10 µM: 64%
  viability at 20 µM: 55%
Cancer stem cells; Gastric cancer
  viability at 10 µM: 45%
  viability at 20 µM: 37%
Cancer stem cells; Gastrointestinal tumor
  viability at 10 µM: 55%
  viability at 20 µM: 44%
Cancer stem cells; Glioma
  viability at 10 µM: 62%
  viability at 20 µM: 45%
Cancer stem cells; [3]
  viability at 10 µM: 56%
  viability at 20 µM: 47%
Cancer stem cells; Laryngeal cancer
  viability at 10 µM: 64%
  viability at 20 µM: 53%
Cancer stem cells; Liver cancer
  viability at 10 µM: 53%
  viability at 20 µM: 46%
Cancer stem cells; Lung adenocarcinoma
  viability at 10 µM: 46%
  viability at 20 µM: 36%
Cancer stem cells; Lung cancer
  viability at 10 µM: 43%
  viability at 20 µM: 33%
Cancer stem cells; Malignant melanoma
  viability at 10 µM: 64%
  viability at 20 µM: 54%
Cancer stem cells; Nasopharynx cancer
  viability at 10 µM: 44%
  viability at 20 µM: 37%
Cancer stem cells; Ovarian cancer
  viability at 10 µM: 62%
  viability at 20 µM: 55%
Cancer stem cells; Pancreatic cancer
  viability at 10 µM: 53%
  viability at 20 µM: 43%
Cancer stem cells; Prostate cancer
  viability at 10 µM: 54%
  viability at 20 µM: 41%
Cancer stem cells; Retinoblastoma
  viability at 10 µM: 54%
  viability at 20 µM: 44%
Cancer stem cells; Skin cancer
  viability at 10 µM: 57%
  viability at 20 µM: 43%
Cancer cells; AML
  viability at 10 µM: 57%
  viability at 20 µM: 47%
Cancer cells; Brain glioma
  viability at 10 µM: 74%
  viability at 20 µM: 58%
Cancer cells; Brain tumor
  viability at 10 µM: 72%
  viability at 20 µM: 63%
Cancer cells; Breast cancer
  viability at 10 µM: 75%
  viability at 20 µM: 65%
Cancer cells; CLL
  viability at 10 µM: 58%
  viability at 20 µM: 47%
Cancer cells; CML
  viability at 10 µM: 64%
  viability at 20 µM: 58%
Cancer cells; Children hepatoblastoma
  viability at 10 µM: 55%
  viability at 20 µM: 47%
Cancer cells; Colon adenocarcinoma
  viability at 10 µM: 55%
  viability at 20 µM: 49%
Cancer cells; Colorectal cancer
  viability at 10 µM: 76%
  viability at 20 µM: 66%
Cancer cells; Gastric cancer
  viability at 10 µM: 54%
  viability at 20 µM: 48%
Cancer cells; Gastrointestinal tumor
  viability at 10 µM: 64%
  viability at 20 µM: 53%
Cancer cells; Glioma
  viability at 10 µM: 74%
  viability at 20 µM: 56%
Cancer cells; [3]
  viability at 10 µM: 67%
  viability at 20 µM: 58%
Cancer cells; Laryngeal cancer
  viability at 10 µM: 75%
  viability at 20 µM: 64%
Cancer cells; Liver cancer
  viability at 10 µM: 66%
  viability at 20 µM: 54%
Cancer cells; Lung adenocarcinoma
  viability at 10 µM: 57%
  viability at 20 µM: 47%
Cancer cells; Lung cancer
  viability at 10 µM: 54%
  viability at 20 µM: 47%
Cancer cells; Malignant melanoma
  viability at 10 µM: 82%
  viability at 20 µM: 66%
Cancer cells; Nasopharynx cancer
  viability at 10 µM: 54%
  viability at 20 µM: 48%
Cancer cells; Ovarian cancer
  viability at 10 µM: 77%
  viability at 20 µM: 67%
Cancer cells; Pancreatic cancer
  viability at 10 µM: 64%
  viability at 20 µM: 49%
Cancer cells; Prostate cancer
  viability at 10 µM: 66%
  viability at 20 µM: 54%
Cancer cells; Retinoblastoma
  viability at 10 µM: 65%
  viability at 20 µM: 53%
Cancer cells; Skin cancer
  viability at 10 µM: 66%
  viability at 20 µM: 58%
[1]
  Content of PGE2 in culture supernatant of synoviocyte (x ± s): 19.83 ± 1.78 ng/mL
[2]
  Content of IL-1β in culture supernatant of synoviocyte (x ± s): 0.34 ± 0.061 ng/mL
Normal cells; [4]
  viability at 10 µM: 92%
  viability at 20 µM: 91%
Normal cells; [5]
  viability at 10 µM: 90%
  viability at 20 µM: 89%
